The target of this assay is T1, human GPR40 (Homo sapiens, UniProt O14842).
T1 construct: expressed in transfected cells; host or cells: CHO-K1
Kind of assay: Induction of Ca2+ (calcium flux assay) using human GPR40 expression cell line. It counts as cell-based. As to conditions: read-out: EC0.5. The method, then: Evaluation of the Test Compounds for Induction of Ca^2+ Using Human GPR40 Expression Cell Line
The cell line expressing human GPR40 was generated by transfection of the GPR40 expression vector into CHO-K1 cell, and used in the following calcium flux assay.
The cell line was cultured in cell-culture medium (F-12 (Invitrogen) supplemented with 10% (v/v) FBS (Fetal Bovine Serum; Invitrogen), 0.5 mg/ml Geneticin (Invitrogen) and 1% (v/v) Antibiotic-Antimycotic solution (Invitrogen)) under the condition of 5% CO2 and 37° C. For calcium flux assay, the cells were diluted with the cell-culture medium to a concentration of 5×10^5 cells/ml, and the diluted cell suspension was dispensed in amount of 100 μl/well to a 96-well transparent bottom black polystyrene cell culture plate (Corning) and then cultured for 24 hours. The following concentrations of test compounds were added to these cells, and then the changes in intracellular calcium concentration were measured by FlexStation II384 (Molecular Devices). The following solution was prepared before the measurement.
First, a buffer solution for assay was prepared for use in the manufacture of fluorescent dye solution. This buffer solution was prepared by adding 1M HEPES solution (Invitrogen) to HBSS (Hanks' Balanced Salt Solution) (Invitrogen) and then adding 1M NaOH (Nacalai Tesque) to adjust pH to 7.4. Then the fluorescent dye solution was prepared according to the manufacturer's instruction attached to Calcium 5 Assay Kit (Molecular Devices), and the final DMSO concentration was adjusted to 2%.
The fluorescent dye solution was added in an amount of 100 μl/well to supernatant of the cell culture plate cultured for 24 hours. The plate was cultured for 1 hour under the condition of 5% CO2 and 37° C. so that the fluorescent dye was inserted into the cell.
Test compounds (i.e., the compounds prepared in the Examples) dissolved in dimethyl sulfoxide (DMSO ACROS) were diluted 200-fold in the buffer solution for assay to prepare compound solutions corresponding to the respective concentrations. […] 50 μl of the prepared sample solutions was added to each well of 96-well polypropylene plates (NUNC), and thereby a compound plate was prepared. Finally, the compound plate and the cell culture plate cultured for 1 hour with the fluorescent dye were placed in FlexStation II384.
After the above pre-treatment, the change in the intracellular calcium concentration when each concentration of the test compound solutions was added at 50 μl was measured by FlexStation II^384.
Then, the relative activity values depending on the concentration of the compound were plotted using Prism 4 software (GraphPad) to calculate the EC0.5 value.
In general terms: A change in cytosolic calcium serves as a functional read-out for many receptors and channels.

Structures are written as SMILES.

T1 sequence (O14842 whole entry): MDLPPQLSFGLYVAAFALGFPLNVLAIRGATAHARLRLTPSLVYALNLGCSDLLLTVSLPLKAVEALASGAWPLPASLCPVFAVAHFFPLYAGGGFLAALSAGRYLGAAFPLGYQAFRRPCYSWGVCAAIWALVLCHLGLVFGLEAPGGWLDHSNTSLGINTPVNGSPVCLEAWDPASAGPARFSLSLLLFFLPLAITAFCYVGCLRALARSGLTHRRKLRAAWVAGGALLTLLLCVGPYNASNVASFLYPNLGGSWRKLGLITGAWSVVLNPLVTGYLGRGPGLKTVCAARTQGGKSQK

On to `CC(C)n1ccc2ccc(CNc3ccc(CCC(=O)O)cc3)cc21` [Example 1], for which the EC50 came out at 100 nM.

For the compound `O=C(O)CCc1ccc(NCc2ccc3ccn(Cc4ccccc4)c3c2)cc1` [Example 2, 3-{4-[(1-benzyl-1H-indol-6-ylmethyl)-amino]-phenyl}-propanoic acid], the EC50 turned out to be 30 nM.

Turning to `O=C(O)CCc1ccc(NCc2ccc3ccn(-c4ccsc4)c3c2)cc1` [Example 3, 3-{4-[(1-thiophen-3-yl-1H-indol-6-ylmethyl)-amino]-phenyl}-propanoic acid], the EC50 amounted to 10 nM.

As to `O=C(O)CCc1ccc(NCc2ccc3ccn(CCc4ccccc4)c3c2)cc1` [Example 4, 3-{4-[(1-phenethyl-1H-indol-6-ylmethyl)-amino]-phenyl}-propanoic acid], the EC50 was 50 nM.

As to `O=C(O)CCc1ccc(NCc2ccc3c(Cl)cn(Cc4ccccc4)c3c2)cc1` [Example 5, 3-{4-[(1-benzyl-3-chloro-1H-indol-6-ylmethyl)-amino]-phenyl}-propanoic acid], the EC50 came to 30 nM.

Take `O=C(O)CCc1ccc(NCc2ccc3c(Cl)c(Cl)n(Cc4ccccc4)c3c2)cc1` [Example 6, 3-{4-[(1-benzyl-2,3-dichloro-1H-indol-6-ylmethyl)-amino]-phenyl}-propanoic acid]: the EC50 worked out at 100 nM.

For the compound `O=C(O)CCc1ccc(NCc2ccc3ccn(Cc4ccccc4)c3c2Cl)cc1` [Example 7, 3-{4-[(1-benzyl-7-chloro-1H-indol-6-ylmethyl)-amino]-phenyl}-propanoic acid], the EC50 is 20 nM.

Regarding `O=C(O)CCc1ccc(NCc2ccc3ccn(-c4ccsc4)c3c2Cl)cc1` [Example 8, 3-{4-[(7-chloro-1-thiophen-3-yl-1H-indol-6-ylmethyl)-amino]-phenyl}-propanoic acid], the EC50 was not below 500 nM.

As for `O=C(O)CCc1ccc(NCc2ccc3ccn(-c4ccc(F)cc4)c3c2Cl)cc1` [Example 9, 3-(4-{[7-chloro-1-(4-fluoro-phenyl)-1H-indol-6-ylmethyl]-amino}-phenyl)-propanoic acid], the EC50 was 300 nM.

For `O=C(O)CCc1ccc(NCc2ccc3ccn(-c4ccc(F)cc4)c3c2)cc1` [Example 10, 3-(4-{[1-(4-fluoro-phenyl)-1H-indol-6-ylmethyl]-amino}-phenyl)-propanoic acid], the EC50 turned out to be 700 nM.

For the compound `O=C(O)CCc1ccc(NCc2ccc3ccn(CC4CCCCC4)c3c2Cl)cc1` [Example 11, 3-{4-[(7-chloro-1-cyclohexylmethyl-1H-indol-6-ylmethyl)-amino]-phenyl}-propanoic acid], the EC50 turned out to be 400 nM.

In the case of `O=C(O)CC1COc2cc(OCc3ccc4c(Cl)cn(Cc5ccccc5)c4c3)ccc21` (centres unmarked) [Example 12, [6-(1-benzyl-3-chloro-1H-indol-6-ylmethoxy)-2,3-dihydro-benzofuran-3-yl]-acetic acid], the EC50 came out at 160 nM.

Turning to `O=C(O)CCc1ccc(OCc2ccc3ccn(-c4ccsc4)c3c2)cc1` [Example 13, 3-[4-(1-thiophen-3-yl-1H-indol-6-ylmethoxy)-phenyl]-propanoic acid], the EC50 was determined as 20 nM.

As for `Cc1c(COc2ccc(CCC(=O)O)cc2)ccc2ccn(-c3ccc(F)cc3)c12` [Example 14, 3-{4-[1-(4-fluoro-phenyl)-7-methyl-1H-indol-6-ylmethoxy]-phenyl}-propanoic acid], the EC50 amounted to 30 nM.

For the compound `Cc1c(COc2ccc(CCC(=O)O)cc2)ccc2ccn(Cc3ccccc3)c12` [Example 15, 3-[4-(1-benzyl-7-methyl-1H-indol-6-ylmethoxy)-phenyl]-propanoic acid], the EC50 was found to be 10 nM.

Turning to `Cc1c(COc2ccc(CCC(=O)O)cc2)ccc2ccn(-c3ccsc3)c12` [Example 16, 3-[4-(7-methyl-1-thiophen-3-yl-1H-indol-6-ylmethoxy)-phenyl]-propanoic acid], the EC50 came out at 20 nM.

As to `Cc1cc(F)ccc1-n1ccc2ccc(COc3ccc(CCC(=O)O)cc3)cc21` [Example 17, 3-{4-[1-(4-fluoro-2-methyl-phenyl)-1H-indol-6-ylmethoxy]-phenyl}-propanoic acid], the EC50 was 7 nM.

`O=C(O)CCc1ccc(OCc2ccc3ccn(Cc4ccccc4)c3c2Cl)cc1` [Example 18, 3-[4-(1-benzyl-7-chloro-1H-indol-6-ylmethoxy)-phenyl]-propanoic acid]: the EC50 is 90 nM.

For the compound `O=C(O)CCc1ccc(OCc2ccc3ccn(CC4CCCCC4)c3c2)cc1` [Example 19, 3-[4-(1-cyclohexylmethyl-1H-indol-6-ylmethoxy)-phenyl]-propanoic acid], the EC50 stood at 400 nM.

For the compound `Cn1cc(Cc2ccccc2)c2cc(COc3ccc(CCC(=O)O)cc3)ccc21` [Example 20, 3-[4-(3-benzyl-1-methyl-1H-indol-5-ylmethoxy)-phenyl]-propanoic acid], the EC50 is 70 nM.

Turning to `Cc1ccccc1-c1cn(C)c2ccc(COc3ccc(CCC(=O)O)cc3)cc12` [Example 21, 3-[4-(1-methyl-3-o-tolyl-1H-indol-5-ylmethoxy)-phenyl]-propanoic acid], the EC50 is not below 500 nM.

Turning to `Cc1cc(F)ccc1-n1cc(Cl)c2ccc(COc3ccc(CCC(=O)O)cc3)cc21` [Example 22, 3-{4-[3-chloro-1-(4-fluoro-2-methyl-phenyl)-1H-indol-6-ylmethoxy)-phenyl]-propanoic acid], the EC50 worked out at 40 nM.

As to `Cc1cc(F)ccc1-n1ccc2cc(F)c(COc3ccc(CCC(=O)O)cc3)cc21` [Example 23, 3-{4-[5-fluoro-1-(4-fluoro-2-methyl-phenyl)-1H-indol-6-ylmethoxy)-phenyl]-propanoic acid], the EC50 was found to be 4 nM.

Take `Cc1cc(F)ccc1-n1ccc2ccc(COc3ccc4c(c3)OCC4CC(=O)O)cc21` (centres unmarked) [Example 24, {6-[1-(4-fluoro-2-methyl-phenyl)-1H-indol-6-ylmethoxy]-2,3-dihydro-benzofuran-3-yl}-acetic acid]: the EC50 was 20 nM.

For the compound `CC#C[C@@H](CC(=O)O)c1ccc(OCc2ccc3ccn(Cc4ccccc4)c3c2C)cc1` [Example 25, (S)-3-[4-(1-benzyl-7-methyl-1H-indol-6-ylmethoxy)-phenyl]-hex-4-ynoic acid], the EC50 was determined as 20 nM.

Consider `CC#C[C@@H](CC(=O)O)c1ccc(OCc2ccc3ccn(-c4ccc(F)cc4C)c3c2)cc1` [Example 26, (S)-3-{4-[1-(4-fluoro-2-methyl-phenyl)-1H-indol-6-ylmethoxy]-phenyl}-hex-4-ynoic acid], for which the EC50 was determined as 20 nM.

Turning to `CC#C[C@@H](CC(=O)O)c1ccc(OCc2ccc3ccn(Cc4ccc(S(C)(=O)=O)cc4)c3c2C)cc1` [Example 27, (S)-3-{4-[1-(4-methanesulfonyl-benzyl)-7-methyl-1H-indol-6-ylmethoxy]-phenyl}-hex-4-ynoic acid], the EC50 came out at 30 nM.

Turning to `CC#C[C@@H](CC(=O)O)c1ccc(OCc2ccc3ccn(Cc4ccc(OC)cc4)c3c2C)cc1` [Example 28, (S)-3-{4-[1-(4-methoxy-benzyl)-7-methyl-1H-indol-6-ylmethoxy]-phenyl}-hex-4-ynoic acid], the EC50 was 10 nM.

In the case of `CC#C[C@@H](CC(=O)O)c1ccc(OCc2ccc3ccn(Cc4ccc(C(F)(F)F)cc4)c3c2C)cc1` [Example 29, (S)-3-{4-[7-methyl-1-(4-trifluoromethyl-benzyl)-1H-indol-6-ylmethoxy]-phenyl}-hex-4-ynoic acid], the EC50 amounted to 70 nM.
